Data from ChEMBL document CHEMBL4219190, “Studies on synthesis of novel pyrido[2,3-d]pyrimidine derivatives, evaluation of their antimicrobial activity and molecular docking” (Bioorg Med Chem Lett, 2018).
Converted amounts (≈) assume the structure as drawn. The source made the active and inactive calls. The calls are words filed in the database; no cut-off is given here.

Tests used:
[1] = test system: Bacillus subtilis; assay: Antibacterial activity against Bacillus subtilis MTCC 121 after 24 hrs by well diffusion method; assay type: functional
[2] = test system: Staphylococcus aureus; assay: Antibacterial activity against Staphylococcus aureus MTCC 96 after 24 hrs by well diffusion method; assay type: functional
[3] = test system: Staphylococcus aureus; assay: Antibacterial activity against Staphylococcus aureus MLS16 MTCC 2940 after 24 hrs by well diffusion method; assay type: functional
[4] = test system: Micrococcus luteus; assay: Antibacterial activity against Micrococcus luteus MTCC 2470 after 24 hrs by well diffusion method; assay type: functional
[5] = test system: Raoultella planticola; assay: Antibacterial activity against Klebsiella planticola MTCC 530 after 24 hrs by well diffusion method; assay type: functional
[6] = test system: Escherichia coli; assay: Antibacterial activity against Escherichia coli MTCC 739 after 24 hrs by well diffusion method; assay type: functional
[7] = test system: Pseudomonas aeruginosa; assay: Antibacterial activity against Pseudomonas aeruginosa MTCC 2453 after 24 hrs by well diffusion method; assay type: functional
[8] = test system: Bacillus subtilis; assay: Bactericidal activity against Bacillus subtilis MTCC 121 incubated for 24 hrs followed by transfer of microbial suspension to Mueller Hinton agar plates and measured after 24 hrs post transfer; assay type: functional
[9] = test system: Staphylococcus aureus; assay: Bactericidal activity against Staphylococcus aureus MTCC 96 incubated for 24 hrs followed by transfer of microbial suspension to Mueller Hinton agar plates and measured after 24 hrs post transfer; assay type: functional; conditions: MTCC 96, 24 h
[10] = test system: Staphylococcus aureus; assay: Bactericidal activity against Staphylococcus aureus MLS16 MTCC 2940 incubated for 24 hrs followed by transfer of microbial suspension to Mueller Hinton agar plates and measured after 24 hrs post transfer; assay type: functional
[11] = test system: Micrococcus luteus; assay: Bactericidal activity against Micrococcus luteus MTCC 2470 incubated for 24 hrs followed by transfer of microbial suspension to Mueller Hinton agar plates and measured after 24 hrs post transfer; assay type: functional
[12] = test system: Raoultella planticola; assay: Bactericidal activity against Klebsiella planticola MTCC 530 incubated for 24 hrs followed by transfer of microbial suspension to Mueller Hinton agar plates and measured after 24 hrs post transfer; assay type: functional
[13] = test system: Escherichia coli; assay: Bactericidal activity against Escherichia coli MTCC 739 incubated for 24 hrs followed by transfer of microbial suspension to Mueller Hinton agar plates and measured after 24 hrs post transfer; assay type: functional
[14] = test system: Pseudomonas aeruginosa; assay: Bactericidal activity against Pseudomonas aeruginosa MTCC 2453 incubated for 24 hrs followed by transfer of microbial suspension to Mueller Hinton agar plates and measured after 24 hrs post transfer; assay type: functional
[15] = test system: Bacillus subtilis; assay: Antibiofilm activity against Bacillus subtilis MTCC 121 after 24 hrs by crystal violet staining-based assay; assay type: functional, organism-based
[16] = test system: Staphylococcus aureus; assay: Antibiofilm activity against Staphylococcus aureus MTCC 96 after 24 hrs by crystal violet staining-based assay; assay type: functional, organism-based; conditions: Staphylococcus aureus, MTCC 96, 24 h; read-out: IC50
[17] = test system: Staphylococcus aureus; assay: Antibiofilm activity against Staphylococcus aureus MLS16 MTCC 2940 after 24 hrs by crystal violet staining-based assay; assay type: functional, organism-based
[18] = test system: Pseudomonas aeruginosa; assay: Antibiofilm activity against Pseudomonas aeruginosa MTCC 2453 after 24 hrs by crystal violet staining-based assay; assay type: functional, organism-based
[19] = test system: Raoultella planticola; assay: Antibiofilm activity against Klebsiella planticola MTCC 530 after 24 hrs by crystal violet staining-based assay; assay type: functional, organism-based
[20] = test system: Candida albicans; assay: Antifungal activity against Candida albicans MTCC 183 after 24 hrs by well diffusion method; assay type: functional; conditions: MTCC 183, 24 h
[21] = test system: Candida albicans; assay: Antifungal activity against Candida albicans MTCC 227 after 24 hrs by well diffusion method; assay type: functional; conditions: MTCC 227, 24 h
[22] = test system: Candida albicans; assay: Antifungal activity against Candida albicans MTCC 854 after 24 hrs by well diffusion method; assay type: functional; conditions: MTCC 854, 24 h
[23] = test system: Candida albicans; assay: Antifungal activity against Candida albicans MTCC 1637 after 24 hrs by well diffusion method; assay type: functional; conditions: MTCC 1637, 24 h
[24] = test system: Candida albicans; assay: Antifungal activity against Candida albicans MTCC 3018 after 24 hrs by well diffusion method; assay type: functional; conditions: MTCC 3018, 24 h
[25] = test system: Candida albicans; assay: Antifungal activity against Candida albicans MTCC 3017 after 24 hrs by well diffusion method; assay type: functional; conditions: MTCC 3017, 24 h
[26] = test system: Candida albicans; assay: Antifungal activity against Candida albicans MTCC 3958 after 24 hrs by well diffusion method; assay type: functional; conditions: MTCC 3958, 24 h
[27] = test system: Candida albicans; assay: Antifungal activity against Candida albicans MTCC 4748 after 24 hrs by well diffusion method; assay type: functional; conditions: MTCC 4748, 24 h
[28] = test system: Candida albicans; assay: Antifungal activity against Candida albicans MTCC 7315 after 24 hrs by well diffusion method; assay type: functional; conditions: MTCC 7315, 24 h
[29] = test system: Candida parapsilosis; assay: Antifungal activity against Candida parapsilosis MTCC 1744 after 24 hrs by well diffusion method; assay type: functional; conditions: MTCC 1744, 24 h
[30] = test system: [Candida] aaseri; assay: Antifungal activity against Candida aaseri MTCC 1962 after 24 hrs by well diffusion method; assay type: functional; conditions: Yamadazyma aaseri, MTCC 1962, 24 h
[31] = test system: Nakaseomyces glabratus; assay: Antifungal activity against Candida glabrata MTCC 3019 after 24 hrs by well diffusion method; assay type: functional; conditions: MTCC 3019, 24 h
[32] = test system: Pichia kudriavzevii; assay: Antifungal activity against Candida krusei MTCC 3020 after 24 hrs by well diffusion method; assay type: functional
[33] = test system: Pichia sporocuriosa; assay: Antifungal activity against Issatchenkia hanoiensis MTCC 4755 after 24 hrs by well diffusion method; assay type: functional; conditions: MTCC 4755, 24 h
[34] = test system: Candida albicans; assay: Fungicidal activity against Candida albicans MTCC 183 incubated for 24 hrs followed by transfer of microbial suspension to Sabouraud dextrose agar plates and measured after 24 hrs post transfer; assay type: functional; conditions: MTCC 183, 24 h
[35] = test system: Candida albicans; assay: Fungicidal activity against Candida albicans MTCC 227 incubated for 24 hrs followed by transfer of microbial suspension to Sabouraud dextrose agar plates and measured after 24 hrs post transfer; assay type: functional; conditions: MTCC 227, 24 h
[36] = test system: Candida albicans; assay: Fungicidal activity against Candida albicans MTCC 854 incubated for 24 hrs followed by transfer of microbial suspension to Sabouraud dextrose agar plates and measured after 24 hrs post transfer; assay type: functional; conditions: MTCC 854, 24 h
[37] = test system: Candida albicans; assay: Fungicidal activity against Candida albicans MTCC 1637 incubated for 24 hrs followed by transfer of microbial suspension to Sabouraud dextrose agar plates and measured after 24 hrs post transfer; assay type: functional; conditions: MTCC 1637, 24 h
[38] = test system: Candida albicans; assay: Fungicidal activity against Candida albicans MTCC 3017 incubated for 24 hrs followed by transfer of microbial suspension to Sabouraud dextrose agar plates and measured after 24 hrs post transfer; assay type: functional; conditions: MTCC 3017, 24 h
[39] = test system: Candida albicans; assay: Fungicidal activity against Candida albicans MTCC 3018 incubated for 24 hrs followed by transfer of microbial suspension to Sabouraud dextrose agar plates and measured after 24 hrs post transfer; assay type: functional; conditions: MTCC 3018, 24 h
[40] = test system: Candida albicans; assay: Fungicidal activity against Candida albicans MTCC 3958 incubated for 24 hrs followed by transfer of microbial suspension to Sabouraud dextrose agar plates and measured after 24 hrs post transfer; assay type: functional; conditions: MTCC 3958, 24 h
[41] = test system: Candida albicans; assay: Fungicidal activity against Candida albicans MTCC 4748 incubated for 24 hrs followed by transfer of microbial suspension to Sabouraud dextrose agar plates and measured after 24 hrs post transfer; assay type: functional; conditions: MTCC 4748, 24 h
[42] = test system: Candida albicans; assay: Fungicidal activity against Candida albicans MTCC 7315 incubated for 24 hrs followed by transfer of microbial suspension to Sabouraud dextrose agar plates and measured after 24 hrs post transfer; assay type: functional; conditions: MTCC 7315, 24 h
[43] = test system: Candida parapsilosis; assay: Fungicidal activity against Candida parapsilosis MTCC 1744 incubated for 24 hrs followed by transfer of microbial suspension to Sabouraud dextrose agar plates and measured after 24 hrs post transfer; assay type: functional; conditions: Lodderomyces parapsilosis, MTCC 1744, 24 h
[44] = test system: [Candida] aaseri; assay: Fungicidal activity against Candida aaseri MTCC 1962 incubated for 24 hrs followed by transfer of microbial suspension to Sabouraud dextrose agar plates and measured after 24 hrs post transfer; assay type: functional; conditions: Yamadazyma aaseri, MTCC 1962, 24 h
[45] = test system: Nakaseomyces glabratus; assay: Fungicidal activity against Candida glabrata MTCC 3019 incubated for 24 hrs followed by transfer of microbial suspension to Sabouraud dextrose agar plates and measured after 24 hrs post transfer; assay type: functional; conditions: MTCC 3019, 24 h
[46] = test system: Pichia kudriavzevii; assay: Fungicidal activity against Candida krusei MTCC 3020 incubated for 24 hrs followed by transfer of microbial suspension to Sabouraud dextrose agar plates and measured after 24 hrs post transfer; assay type: functional
[47] = test system: Pichia sporocuriosa; assay: Fungicidal activity against Issatchenkia hanoiensis MTCC 4755 incubated for 24 hrs followed by transfer of microbial suspension to Sabouraud dextrose agar plates and measured after 24 hrs post transfer; assay type: functional; conditions: MTCC 4755, 24 h

## COc1ccc(-c2nc(C(=O)NCCO)nc3nc(-c4ccccc4)cc(C(F)(F)F)c23)cc1
[1]
  MIC: inactive
[2]
  MIC: inactive
[3]
  MIC: inactive
[4]
  MIC: inactive
[5]
  MIC: inactive
[6]
  MIC: inactive
[7]
  MIC: inactive

## COc1ccc(-c2nc(C(=O)NC3CCCCC3)nc3nc(-c4ccccc4)cc(C(F)(F)F)c23)cc1
[8]
  MBC: inactive
[1]
  MIC: inactive
[2]; MTCC 96, 24 h
  MIC: 7.8 µg/mL (≈ 15.4 µM)
[3]
  MIC: inactive
[4]
  MIC: inactive
[5]
  MIC: inactive
[6]
  MIC: inactive
[7]
  MIC: inactive
[9]
  MBC: 7.8 µg/mL (≈ 15.4 µM)
[10]
  MBC: inactive
[11]
  MBC: inactive
[12]
  MBC: inactive
[13]
  MBC: inactive
[14]
  MBC: inactive
[15]
  IC50: Not Active
[16]
  IC50: 2.7 µg/mL (≈ 5.33 µM)
[17]
  IC50: Not Active
[18]
  IC50: Not Active
[19]
  IC50: Not Active

## O=C(NCc1ccco1)c1nc(-c2ccccc2)c2c(C(F)(F)F)cc(-c3ccccc3)nc2n1
[8]
  MBC: inactive
[1]
  MIC: inactive
[2]; MTCC 96, 24 h
  MIC: 7.8 µg/mL (≈ 16.4 µM)
[3]
  MIC: inactive
[4]
  MIC: inactive
[5]; MTCC 530, 24 h
  MIC: 15.6 µg/mL (≈ 32.9 µM)
[6]
  MIC: inactive
[7]
  MIC: inactive
[9]
  MBC: 15.6 µg/mL (≈ 32.9 µM)
[10]
  MBC: inactive
[11]
  MBC: inactive
[12]; MTCC 530, 24 h
  MBC: 31.2 µg/mL (≈ 65.8 µM)
[13]
  MBC: inactive
[14]
  MBC: inactive
[15]
  IC50: Not Active
[16]
  IC50: 2.7 µg/mL (≈ 5.69 µM)
[17]
  IC50: Not Active
[18]
  IC50: Not Active
[19]; Klebsiella planticola, MTCC 530, 24 h, read-out: IC50
  IC50: 5.4 µg/mL (≈ 11.4 µM)

## O=C(c1nc(-c2ccccc2)c2c(C(F)(F)F)cc(-c3ccccc3)nc2n1)N1CCCC1
[1]
  MIC: inactive
[2]
  MIC: inactive
[3]
  MIC: inactive
[4]
  MIC: inactive
[5]
  MIC: inactive
[6]
  MIC: inactive
[7]
  MIC: inactive
[20]
  MIC: 7.8 µg/mL (≈ 17.4 µM)
[21]
  MIC: 15.6 µg/mL (≈ 34.8 µM)
[22]
  MIC: 7.8 µg/mL (≈ 17.4 µM)
[23]
  MIC: 7.8 µg/mL (≈ 17.4 µM)
[24]
  MIC: 31.2 µg/mL (≈ 69.6 µM)
[25]
  MIC: 7.8 µg/mL (≈ 17.4 µM)
[26]
  MIC: 31.2 µg/mL (≈ 69.6 µM)
[27]
  MIC: 62.5 µg/mL (≈ 139 µM)
[28]
  MIC: 15.6 µg/mL (≈ 34.8 µM)
[29]
  MIC: 15.6 µg/mL (≈ 34.8 µM)
[30]
  MIC: 7.8 µg/mL (≈ 17.4 µM)
[31]
  MIC: 31.2 µg/mL (≈ 69.6 µM)
[32]
  MIC: inactive
[33]
  MIC: 31.2 µg/mL (≈ 69.6 µM)
[34]
  MFC: 15.6 µg/mL (≈ 34.8 µM)
[35]
  MFC: 31.2 µg/mL (≈ 69.6 µM)
[36]
  MFC: 15.6 µg/mL (≈ 34.8 µM)
[37]
  MFC: 15.6 µg/mL (≈ 34.8 µM)
[38]
  MFC: 15.6 µg/mL (≈ 34.8 µM)
[39]
  MFC: 62.5 µg/mL (≈ 139 µM)
[40]
  MFC: 62.5 µg/mL (≈ 139 µM)
[41]
  MFC: 62.5 µg/mL (≈ 139 µM)
[42]
  MFC: 31.2 µg/mL (≈ 69.6 µM)
[43]
  MFC: 15.6 µg/mL (≈ 34.8 µM)
[44]
  MFC: 15.6 µg/mL (≈ 34.8 µM)
[45]
  MFC: 31.2 µg/mL (≈ 69.6 µM)
[46]
  MFC: inactive
[47]
  MFC: 62.5 µg/mL (≈ 139 µM)

## COc1ccc(-c2nc(C(=O)NCc3ccccc3)nc3nc(-c4ccccc4)cc(C(F)(F)F)c23)cc1
[1]
  MIC: inactive
[2]
  MIC: inactive
[3]
  MIC: inactive
[4]
  MIC: inactive
[5]
  MIC: inactive
[6]
  MIC: inactive
[7]
  MIC: inactive
